Results taken from the supplement of paper PMC10307832.

Columns and labels:
Assay in all cases: relative viability (nuclei count vs DMSO), 5 days (fraction); higher = more cells survive
Palbociclib + Trametinib = compound: CC(=O)c1c(C)c2cnc(Nc3ccc(N4CCNCC4)cn3)nc2n(C2CCCC2)c1=O [Palbociclib] + CC(=O)Nc1cccc(-n2c(=O)n(C3CC3)c(=O)c3c(Nc4ccc(I)cc4F)n(C)c(=O)c(C)c32)c1 [Trametinib] (partner 0.02 µM)
In short: (§1)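 For relative viability, nuclei counts in treated wells were divided by those in vehicle wells. Lung cancer cell lines had been pin-tool dosed in 1536-well plates the day after seeding and cultured for 5 days, then fixed and stained in one step (final 0.05% Triton X-100, 1% formaldehyde, 1 ug/ml Hoechst) and imaged at 4×. Doses were one drug alone or a fixed anchor-drug dose plus five library-drug doses (not always all listed) in √10 steps, and values are duplicate-plate medians.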

Palbociclib + Bortezomib = compound: CC(=O)c1c(C)c2cnc(Nc3ccc(N4CCNCC4)cn3)nc2n(C2CCCC2)c1=O [Palbociclib] + CC(C)C[C@H](NC(=O)[C@H](Cc1ccccc1)NC(=O)c1cnccn1)B(O)O [Bortezomib] (partner 0.002 µM)
In short: as §1

Palbociclib + Dasatinib = compound: CC(=O)c1c(C)c2cnc(Nc3ccc(N4CCNCC4)cn3)nc2n(C2CCCC2)c1=O [Palbociclib] + Cc1nc(Nc2ncc(C(=O)Nc3c(C)cccc3Cl)s2)cc(N2CCN(CCO)CC2)n1 [Dasatinib] (partner 0.075 µM)
In short: as §1

Palbociclib + AZD7762 = compound: CC(=O)c1c(C)c2cnc(Nc3ccc(N4CCNCC4)cn3)nc2n(C2CCCC2)c1=O [Palbociclib] + NC(=O)Nc1cc(-c2cccc(F)c2)sc1C(=O)N[C@H]1CCCNC1 [AZD7762] (partner 0.2 µM)
In short: as §1

Row | Cell Line | relative viability (Palbociclib + Trametinib; first compound 0.01 µM) | relative viability (Palbociclib + Trametinib; first compound 0.03162 µM) | relative viability (Palbociclib + Trametinib; first compound 0.1 µM) | relative viability (Palbociclib + Trametinib; first compound 0.3162 µM) | relative viability (Palbociclib + Trametinib; first compound 1 µM) | relative viability (Palbociclib + Bortezomib; first compound 0.01 µM) | relative viability (Palbociclib + Bortezomib; first compound 0.03162 µM) | relative viability (Palbociclib + Bortezomib; first compound 0.1 µM) | relative viability (Palbociclib + Bortezomib; first compound 0.3162 µM) | relative viability (Palbociclib + Bortezomib; first compound 1 µM) | relative viability (Palbociclib + Dasatinib; first compound 0.01 µM) | relative viability (Palbociclib + Dasatinib; first compound 0.1 µM) | relative viability (Palbociclib + Dasatinib; first compound 0.3162 µM) | relative viability (Palbociclib + Dasatinib; first compound 1 µM) | relative viability (Palbociclib + AZD7762; first compound 0.01 µM) | relative viability (Palbociclib + AZD7762; first compound 0.03162 µM) | relative viability (Palbociclib + AZD7762; first compound 0.1 µM) | relative viability (Palbociclib + AZD7762; first compound 0.3162 µM) | relative viability (Palbociclib + AZD7762; first compound 1 µM) | relative viability (Palbociclib + Dasatinib; first compound 0.03162 µM)
1 | NCI-H2087 | 0.236 | 0.191 | 0.161 | 0.15 | 0.187 | 0.803 | 0.81 | 0.702 | 0.485 | 0.372 | 0.784 | 0.658 | 0.385 | 0.328 | 1.18 | 1.16 | 1.03 | 0.902 | 0.641 | 
2 | NCI-H2126 | 0.575 | 0.528 | 0.518 | 0.509 | 0.431 | 1.1 | 0.91 | 0.925 | 0.801 | 0.599 | 0.574 | 0.355 | 0.387 | 0.27 | 0.937 | 0.848 | 0.8 | 0.732 | 0.584 | 0.449
3 | NCI-H2347 | 0.295 | 0.292 | 0.244 | 0.249 | 0.272 | 1.01 |  | 0.929 |  | 0.684 | 0.341 | 0.266 | 0.247 | 0.245 | 0.793 | 0.638 | 0.646 | 0.633 | 0.48 | 
4 | NCI-H2405 | 0.614 | 0.509 | 0.531 | 0.555 | 0.447 | 0.973 | 0.769 | 0.847 | 1.01 | 0.597 | 0.207 | 0.226 | 0.212 | 0.208 | 0.666 | 0.78 | 0.726 | 0.62 | 0.383 | 0.212
5 | NCI-H3122 | 0.212 | 0.207 | 0.232 | 0.192 | 0.158 | 1.04 | 1.02 | 0.919 | 0.745 | 0.513 | 0.762 | 0.386 | 0.414 | 0.231 | 0.927 | 0.82 | 0.897 | 0.715 | 0.347 | 0.546
6 | PC-3 [JPC-3] | 0.657 | 0.634 | 0.534 | 0.703 | 0.597 | 0.776 | 0.701 | 0.706 | 0.665 | 0.545 | 1.06 | 0.936 | 0.801 | 0.566 | 0.794 | 0.814 | 0.619 | 0.592 | 0.41 | 0.758
7 | PC-14 | 0.742 | 0.528 | 0.512 | 0.466 | 0.273 | 1.02 | 0.863 | 0.751 | 0.655 | 0.57 | 0.324 | 0.207 | 0.164 | 0.115 | 0.453 | 0.349 | 0.277 | 0.289 | 0.16 | 0.223
8 | RERF-LC-KJ | 0.793 | 0.771 | 0.846 | 0.813 | 0.91 | 1.17 | 1.12 | 1.11 | 1.04 | 1.15 | 0.832 | 0.717 | 0.852 | 0.922 | 0.966 | 0.661 | 0.932 | 0.948 | 0.996 | 0.802
